Values of other authors in patent US7674824B2, “Stable oxaliplatin formulation” (Fresenius Kabi Oncology Limited, priority 2006, dated 2010).

Details: 0.9% sodium chloride solution

O=C1[O][Pt]2([NH][C@@H]3CCCC[C@H]3[NH]2)[O]C1=O [oxaliplatin]
Stability after reconstitution in chloride-containing solution (in words): rapidly decomposing
